Patent publication US7022839B2, “Heterodimeric conjugates of neomycin-chloramphenicol having an enhanced specificity against RNA targets and its preparation” (Korea Institute of Science and Technology, priority 2001, dated 2006)
pKd: −log10 of the molar value.

Tests used:
RRE RNA = experiment: Fluorescence anisotropy competition binding (CRP displacement) to RRE RNA; set-up: species or system HIV; conditions: competition with CRP probe, 20° C., pH 7.5; read-out: binding force (bond constant KD) against RRE RNA
Procedure: (§1) The RNA of the present invention was prepared with sense DNA of 16S rRNA (sequence listing 1) and an antisense DNA of 16S rRNA (sequence listing 2); a sense DNA of RRE RNA (sequence listing 3) and an antisense DNA of RRE RNA (sequence listing 4); and a sense DNA of TS RNA (sequence listing 5) and an antisense DNA of TS RNA (sequence listing 6). […]
(§2) The paromomycin bonded with tetramethylrhodamine (hereinafter referred to as […]) is used as a luminescence fluorescent probe. The luminescence anisotropy is measured by establishing a thermostat of 20° C. at the Perkin-Elmer LS-50B luminescence spectroscope. The luminescence absorptance of CRP is 510 nm and its luminescence fluorescent is observed at 550 nm. […] The luminescence was measured at an elution buffer using 140 mM NaCl, 5 mM KCl, 1 mM MgCl2, and 20 mM HEPES pH 7.5. […]
(§3) A is the luminescence anisotropy value of CRP when RNA is present,
(§4) A0 is the luminescence anisotropy value of CRP when RNA is not present,
(§5) DA is the difference of luminescence anisotropy value when RNA is not present between various RNA concentrations, […]
(§6) If the newly prepared compound is added to the solution after inducing the bonding of the said RNA and CRP, CRP is separated from RNA by a competitive bonding reaction and the compound to be measured achieves a KD value by bonding with RNA. […]
(§7) [Aminoglycoside]0 is the initial concentration of aminoglycoside to be measured, […]

TS RNA = experiment: Fluorescence anisotropy competition binding (CRP displacement) to TS RNA; conditions: competition with CRP probe, 20° C., pH 7.5; read-out: binding force (bond constant KD) against TS RNA
Procedure: as §1, §2, §3, §4, §5, §6, §7

16S rRNA = experiment: Fluorescence anisotropy competition binding (CRP displacement) to 16S rRNA; conditions: competition with CRP probe, 20° C., pH 7.5; read-out: binding force (bond constant KD) against 16s rRNA
Procedure: as §1, §2, §3, §4, §5, §6, §7

Measured: pKd

Neomycin [reference compound]
< 5.70: RRE RNA | TS RNA | 16S rRNA
